Assay results published in the supplement of paper PMC10307832.

Legend:
Experiment in all cases: relative viability (nuclei count vs DMSO), 5 days (fraction); higher = more cells survive
RERF-LC-KJ = test system: RERF-LC-KJ
In short: (§1)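 A single step with final 0.05% Triton X-100, 1% formaldehyde and 1 ug/ml Hoechst fixed the cells and stained nuclei 5 days after treatment. Lung cancer cell lines in 1536-well plates had been treated by pin tool the day after seeding with one drug alone or a fixed anchor-drug dose plus five library-drug doses (not always all listed) in √10 steps, and nuclei were counted on 4× images. Relative viability is the ratio of nuclei in treated wells to nuclei in vehicle wells, taken as the median of duplicate plates.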

NCI-H1355 = test system: NCI-H1355
In short: as §1

NCI-H1563 = test system: NCI-H1563
In short: as §1

NCI-H2228 = test system: NCI-H2228
In short: as §1

LCLC-97TM1 = test system: LCLC-97TM1
In short: as §1

NCI-H1734 = test system: NCI-H1734
In short: as §1

NCI-H661 = test system: NCI-H661
In short: as §1

PC-14 = test system: PC-14
In short: as §1

NCI-H520 = test system: NCI-H520
In short: as §1

NCI-H1975 = test system: NCI-H1975
In short: as §1

HCC-827 = test system: HCC-827
In short: as §1

EKVX = test system: EKVX
In short: as §1

PC-3 [JPC-3] = test system: PC-3 [JPC-3]
In short: as §1

NCI-H322M = test system: NCI-H322M
In short: as §1

HCC-15 = test system: HCC-15
In short: as §1

CAL-12T = test system: CAL-12T
In short: as §1

NCI-H1650 = test system: NCI-H1650
In short: as §1

NCI-H1755 = test system: NCI-H1755
In short: as §1

NCI-H2405 = test system: NCI-H2405
In short: as §1

H3255 = test system: H3255
In short: as §1

For `O=c1cc(-c2cccc3c2Sc2ccccc2S3)oc(N2CCOCC2)c1` + CC(C)C[C@H](NC(=O)[C@H](Cc1ccccc1)NC(=O)c1cnccn1)B(O)O [Bortezomib] (partner 0.002 µM), the relative viability (RERF-LC-KJ; first compound 0.08 µM) was 1.04, the relative viability (RERF-LC-KJ; first compound 0.253 µM) was 1.36 and the relative viability (RERF-LC-KJ; first compound 0.8 µM) was 1.22. It also gave a relative viability (RERF-LC-KJ; first compound 2.53 µM) of 1.09, a relative viability (RERF-LC-KJ; first compound 8 µM) of 1.02 and a relative viability (NCI-H1355; first compound 0.08 µM) of 1.25. It also gave a relative viability (NCI-H1355; first compound 0.253 µM) of 1.35, a relative viability (NCI-H1355; first compound 0.8 µM) of 1.22 and a relative viability (NCI-H1355; first compound 2.53 µM) of 1.16. It also gave a relative viability (NCI-H1355; first compound 8 µM) of 1.3, a relative viability (NCI-H1563; first compound 0.08 µM) of 0.773 and a relative viability (NCI-H1563; first compound 0.253 µM) of 0.857. It also gave a relative viability (NCI-H1563; first compound 0.8 µM) of 0.767, a relative viability (NCI-H1563; first compound 2.53 µM) of 0.92 and a relative viability (NCI-H1563; first compound 8 µM) of 0.83. It also gave a relative viability (NCI-H2228; first compound 0.08 µM) of 0.965, a relative viability (NCI-H2228; first compound 0.253 µM) of 1.16 and a relative viability (NCI-H2228; first compound 0.8 µM) of 1.19. For the same molecule, the relative viability (NCI-H2228; first compound 2.53 µM) was 0.982, the relative viability (NCI-H2228; first compound 8 µM) was 1.23 and the relative viability (LCLC-97TM1; first compound 0.08 µM) was 0.732. The relative viability (LCLC-97TM1; first compound 0.253 µM) was 0.387, the relative viability (LCLC-97TM1; first compound 0.8 µM) was 0.528 and the relative viability (LCLC-97TM1; first compound 2.53 µM) was 0.344. It also gave a relative viability (LCLC-97TM1; first compound 8 µM) of 1.16, a relative viability (NCI-H1734; first compound 0.08 µM) of 0.865 and a relative viability (NCI-H1734; first compound 0.253 µM) of 1.06. For the same molecule, the relative viability (NCI-H1734; first compound 0.8 µM) was 1.05, the relative viability (NCI-H1734; first compound 2.53 µM) was 0.844 and the relative viability (NCI-H1734; first compound 8 µM) was 1.18. For the same molecule, the relative viability (NCI-H661; first compound 0.08 µM) was 0.808, the relative viability (NCI-H661; first compound 0.253 µM) was 0.935 and the relative viability (NCI-H661; first compound 0.8 µM) was 0.837. It also gave a relative viability (NCI-H661; first compound 2.53 µM) of 0.798, a relative viability (NCI-H661; first compound 8 µM) of 0.912 and a relative viability (PC-14; first compound 0.08 µM) of 1.08. For the same molecule, the relative viability (PC-14; first compound 0.253 µM) was 1.01, the relative viability (PC-14; first compound 0.8 µM) was 0.962 and the relative viability (PC-14; first compound 2.53 µM) was 0.866. The relative viability (PC-14; first compound 8 µM) was 0.882, the relative viability (NCI-H520; first compound 0.08 µM) was 0.679 and the relative viability (NCI-H520; first compound 0.253 µM) was 0.619. The relative viability (NCI-H520; first compound 0.8 µM) was 0.732, the relative viability (NCI-H520; first compound 2.53 µM) was 0.507 and the relative viability (NCI-H520; first compound 8 µM) was 0.604. It also gave a relative viability (NCI-H1975; first compound 0.08 µM) of 0.425, a relative viability (NCI-H1975; first compound 0.253 µM) of 0.419 and a relative viability (NCI-H1975; first compound 0.8 µM) of 0.319. The relative viability (NCI-H1975; first compound 2.53 µM) was 0.367, the relative viability (NCI-H1975; first compound 8 µM) was 0.384 and the relative viability (HCC-827; first compound 0.08 µM) was 0.962. It also gave a relative viability (HCC-827; first compound 0.253 µM) of 0.96, a relative viability (HCC-827; first compound 0.8 µM) of 0.974 and a relative viability (HCC-827; first compound 2.53 µM) of 0.873. For the same molecule, the relative viability (HCC-827; first compound 8 µM) was 1.11, the relative viability (EKVX; first compound 0.08 µM) was 0.977 and the relative viability (EKVX; first compound 0.253 µM) was 1.11. For the same molecule, the relative viability (EKVX; first compound 0.8 µM) was 1.1, the relative viability (EKVX; first compound 2.53 µM) was 1.06 and the relative viability (EKVX; first compound 8 µM) was 1.1. It also gave a relative viability (PC-3 [JPC-3]; first compound 0.08 µM) of 0.875, a relative viability (PC-3 [JPC-3]; first compound 0.253 µM) of 0.801 and a relative viability (PC-3 [JPC-3]; first compound 0.8 µM) of 0.886. The relative viability (PC-3 [JPC-3]; first compound 2.53 µM) was 0.818, the relative viability (PC-3 [JPC-3]; first compound 8 µM) was 1.12 and the relative viability (NCI-H322M; first compound 0.08 µM) was 1.21. It also gave a relative viability (NCI-H322M; first compound 0.253 µM) of 1.21, a relative viability (NCI-H322M; first compound 0.8 µM) of 1.2 and a relative viability (NCI-H322M; first compound 2.53 µM) of 1.04. It also gave a relative viability (NCI-H322M; first compound 8 µM) of 1.17, a relative viability (HCC-15; first compound 0.08 µM) of 1.07 and a relative viability (HCC-15; first compound 0.253 µM) of 1.27. For the same molecule, the relative viability (HCC-15; first compound 0.8 µM) was 1.22, the relative viability (HCC-15; first compound 2.53 µM) was 1 and the relative viability (HCC-15; first compound 8 µM) was 1.16. For the same molecule, the relative viability (CAL-12T; first compound 0.08 µM) was 0.716, the relative viability (CAL-12T; first compound 0.253 µM) was 0.945 and the relative viability (CAL-12T; first compound 0.8 µM) was 1.02. The relative viability (CAL-12T; first compound 2.53 µM) was 0.98, the relative viability (CAL-12T; first compound 8 µM) was 1.05 and the relative viability (NCI-H1650; first compound 0.08 µM) was 0.212. For the same molecule, the relative viability (NCI-H1650; first compound 0.253 µM) was 0.168, the relative viability (NCI-H1650; first compound 0.8 µM) was 0.189 and the relative viability (NCI-H1650; first compound 2.53 µM) was 0.16. It also gave a relative viability (NCI-H1650; first compound 8 µM) of 0.184, a relative viability (NCI-H1755; first compound 0.08 µM) of 0.973 and a relative viability (NCI-H1755; first compound 0.253 µM) of 1.09. The relative viability (NCI-H1755; first compound 0.8 µM) was 1.01, the relative viability (NCI-H1755; first compound 2.53 µM) was 1.01 and the relative viability (NCI-H1755; first compound 8 µM) was 0.941. It also gave a relative viability (NCI-H2405; first compound 0.08 µM) of 0.949, a relative viability (NCI-H2405; first compound 0.253 µM) of 1.11 and a relative viability (NCI-H2405; first compound 0.8 µM) of 0.996. For the same molecule, the relative viability (NCI-H2405; first compound 2.53 µM) was 0.98, the relative viability (NCI-H2405; first compound 8 µM) was 1.03 and the relative viability (H3255; first compound 0.08 µM) was 0.837. The relative viability (H3255; first compound 0.253 µM) was 0.835, the relative viability (H3255; first compound 0.8 µM) was 0.837 and the relative viability (H3255; first compound 2.53 µM) was 0.646. It also gave a relative viability (H3255; first compound 8 µM) of 1.07.
